Assays:
[1] = system: KB cells; test: Nucleoside/AICA protection from growth inhibition in KB cells; assay type: cell-based, human
[2] = system: human KB cervical tumors as xenografts; test: In vivo evaluation in advanced stage KB tumor xenograft; design: species or system SCID female mice
Procedure: SCID female mice bearing advanced stage human KB cervical tumors as xenografts (xenograft tumors) were administered compound AAG154353 of the present invention intravenously at various doses and schedules.
Mice were maintained on a Folic Acid deficient diet (Harlan-Teklad Diet #00434; Madison, Wis.) exclusively for approximately three weeks at the start of treatment. […] Thus, significant antitumor activity was detected. Toxicity as reflected in weight loss was modest.

[3] = target: T1, GARFTase (Homo sapiens, UniProt P22102); test: In situ GARFTase assay (14C-glycine incorporation into formyl glycinamide ribonucleotide); assay type: cell-based; settings: mean IC50, SEM in parentheses
T1 construct: In the in situ GARFTase assay, incorporation of ^14C-glycine into formyl glycinamide ribonucleotide was measured; endogenous in cells
T1 sequence (P22102 1-1010): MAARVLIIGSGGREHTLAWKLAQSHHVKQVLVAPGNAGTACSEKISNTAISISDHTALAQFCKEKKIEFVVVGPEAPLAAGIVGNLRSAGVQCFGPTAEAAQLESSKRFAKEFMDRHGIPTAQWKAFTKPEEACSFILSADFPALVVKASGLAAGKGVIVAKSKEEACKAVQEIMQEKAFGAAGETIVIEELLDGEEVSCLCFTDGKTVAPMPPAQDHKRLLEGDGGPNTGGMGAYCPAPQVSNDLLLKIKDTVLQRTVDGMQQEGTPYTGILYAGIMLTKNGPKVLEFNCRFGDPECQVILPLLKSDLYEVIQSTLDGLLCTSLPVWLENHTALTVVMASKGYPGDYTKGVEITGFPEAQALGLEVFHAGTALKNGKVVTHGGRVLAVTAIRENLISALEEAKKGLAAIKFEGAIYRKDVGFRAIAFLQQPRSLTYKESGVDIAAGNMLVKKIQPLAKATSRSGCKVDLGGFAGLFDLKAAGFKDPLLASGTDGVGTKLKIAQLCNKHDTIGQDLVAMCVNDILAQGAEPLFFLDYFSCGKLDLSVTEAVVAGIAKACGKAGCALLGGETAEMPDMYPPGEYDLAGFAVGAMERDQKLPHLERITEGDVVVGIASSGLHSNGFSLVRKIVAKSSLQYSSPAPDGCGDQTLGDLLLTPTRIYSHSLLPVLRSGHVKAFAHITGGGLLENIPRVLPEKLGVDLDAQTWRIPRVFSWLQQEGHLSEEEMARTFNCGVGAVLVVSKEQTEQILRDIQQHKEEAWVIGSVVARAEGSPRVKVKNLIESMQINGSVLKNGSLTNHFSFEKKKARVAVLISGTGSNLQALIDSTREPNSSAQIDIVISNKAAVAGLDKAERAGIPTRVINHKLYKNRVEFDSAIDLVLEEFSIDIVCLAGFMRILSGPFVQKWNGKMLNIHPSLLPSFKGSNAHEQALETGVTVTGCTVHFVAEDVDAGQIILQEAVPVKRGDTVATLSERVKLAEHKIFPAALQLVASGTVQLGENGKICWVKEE

[4] = target: T2, hPCFT (Homo sapiens, UniProt Q96NT5); test: Inhibition of [3H]MTX transport by hPCFT; assay type: cell-based; settings: initial studies over a range of pH values
T2 construct: expressed in transfected cells
T2 sequence (Q96NT5 1-459): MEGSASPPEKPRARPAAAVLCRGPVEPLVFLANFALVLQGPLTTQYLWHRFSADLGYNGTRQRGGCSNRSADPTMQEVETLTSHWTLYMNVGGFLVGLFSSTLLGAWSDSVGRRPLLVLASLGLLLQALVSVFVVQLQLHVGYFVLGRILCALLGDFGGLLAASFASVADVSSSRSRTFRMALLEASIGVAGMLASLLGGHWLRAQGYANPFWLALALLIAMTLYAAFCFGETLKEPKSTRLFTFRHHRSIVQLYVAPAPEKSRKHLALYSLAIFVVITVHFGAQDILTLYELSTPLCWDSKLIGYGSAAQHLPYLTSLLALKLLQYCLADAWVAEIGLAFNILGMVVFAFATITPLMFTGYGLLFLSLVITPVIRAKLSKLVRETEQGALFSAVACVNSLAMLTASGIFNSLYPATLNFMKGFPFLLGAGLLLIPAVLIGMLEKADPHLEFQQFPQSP

[5] = Q2dx4 starting day 43, 500 mg/kg total dose IV

Nc1nc2[nH]c(CCCCc3ccc(C(=O)N[C@@H](CCC(=O)O)C(=O)O)s3)cc2c(=O)[nH]1 [AAG154353, (S)-2-({5-[4-(2-amino-4-oxo-4,7-dihydro-3H-pyrrolo[2,3-d]pyrimidin-6-yl)-butyl]thiophene-2-carbonyl}-amino)-pentanedioic acid]
Effect of 5-amino-4-imidazolecarboxamide (AICA) on growth inhibition of KB cells ([1]; AICA 320 μM): completely protected | Effect of adenosine on growth inhibition of KB cells ([1]; adenosine 60 μM): completely protective | Effect of thymidine on growth inhibition of KB cells ([1]; thymidine 10 μM): did not alter the growth inhibitory effects | Tumor response of late stage KB xenografts ([2]; IV, three mice on various dose/schedules, tumors 446 to 650 mg at start, folic acid deficient diet): tumors regressed completely | Toxicity as reflected in weight loss ([2]; IV, various dose/schedules): modest | Tumor size [2, 5]: 63 mg | Tumor-free status [2, 5]: tumor free up to day 60 | Time mouse tumor free ([2]; Q3dx4 starting day 37, 750 mg/kg total dose IV): 30 days | Time mouse tumor free ([2]; Q4dx3 starting day 48, 187.5 mg/kg total dose IV): 30 days | IC50 [3]: 0.63 nM | Increased inhibition of hPCFT transport at acid (pH<7) over neutral (pH>7) conditions [4]: 2-3 fold

Reference: US10000498B2, “Selective proton coupled folate transporter and folate receptor, and GARFTase inhibitor compounds and methods of using the same” (Duquesne University of the Holy Spirit, priority 2008, dated 2018)
